Structures can show the parent of a compound that is named as a salt.
How the values were obtained:
Conditions in all cases: exposure time: 72 h
E57 [1] = patient-derived glioblastoma stem cells of mesenchymal subtype; assay: surviving fraction (nuclei count normalised to DMSO); higher = more cells surviving (less toxic)
E21 [2] = patient-derived glioblastoma stem cells of mesenchymal subtype; assay: as above
FT3469 [3] = normal neural stem cell line; assay: as above
E13 [4] = patient-derived glioblastoma stem cells of classical subtype; assay: as above
E28 [5] = patient-derived glioblastoma stem cells of classical subtype; assay: as above
E31 [6] = patient-derived glioblastoma stem cells of proneural subtype; assay: as above
E34 [7] = patient-derived glioblastoma stem cells of proneural subtype; assay: as above
E57 [8] = assay: phenotypic distance (Euclidean, principal components) from DMSO controls (arbitrary units); higher = stronger morphological change
E21 [9] = assay: as above
FT3469 [10] = assay: as above
E13 [11] = assay: as above
E28 [12] = assay: as above
E31 [13] = assay: as above
E34 [14] = assay: as above
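For phenotypic distance (Euclidean, principal components) from DMSO controls in this document: cell Painting imaging in 384-well plates, CellProfiler features reduced to at least 20 principal components, Euclidean distance versus same-plate DMSO vehicle wells (0.1% v/v), median over six images per well.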
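For surviving fraction (nuclei count normalised to DMSO) in this document: nuclei counted by high-content imaging of Hoechst-stained cells in laminin-coated 384-well plates, relative to 0.1% DMSO vehicle wells, with staurosporine as cell-death control.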

C=CC(=O)Nc1cc(Nc2nccc(-c3cn(C)c4ccccc34)n2)c(OC)cc1N(C)CCN(C)C [Osimertinib mesylate]
Conditions | phenotypic distance | surviving fraction
E13 [4], 4.1 nM | – | 0.883
E13 [4], 12.3 nM | – | 1
E13 [4], 37 nM | – | 0.978
E13 [4], 111.1 nM | – | 0.951
E13 [4], 333.3 nM | – | 1.03
E13 [4], 1000 nM | – | 0.935
E13 [4], 3000 nM | – | 0.547
E13 [11], 4.1 nM | 0.974 | –
E13 [11], 12.3 nM | 0.598 | –
E13 [11], 37 nM | 0.826 | –
E13 [11], 111.1 nM | 0.647 | –
E13 [11], 333.3 nM | 1.84 | –
E13 [11], 1000 nM | 1.28 | –
E13 [11], 3000 nM | 2.96 | –
E21 [2], 4.1 nM | – | 1.11
E21 [2], 12.3 nM | – | 0.955
E21 [2], 37 nM | – | 0.892
E21 [2], 111.1 nM | – | 1.05
E21 [2], 333.3 nM | – | 0.931
E21 [2], 1000 nM | – | 0.909
E21 [2], 3000 nM | – | 0.455
E21 [9], 4.1 nM | 0.814 | –
E21 [9], 12.3 nM | 0.422 | –
E21 [9], 37 nM | 1.04 | –
E21 [9], 111.1 nM | 0.922 | –
E21 [9], 333.3 nM | 1.1 | –
E21 [9], 1000 nM | 1.12 | –
E21 [9], 3000 nM | 4.6 | –
E28 [5], 4.1 nM | – | 0.973
E28 [5], 12.3 nM | – | 1.04
E28 [5], 37 nM | – | 0.86
E28 [5], 111.1 nM | – | 1.01
E28 [5], 333.3 nM | – | 0.864
E28 [5], 1000 nM | – | 0.922
E28 [5], 3000 nM | – | 0.496
E28 [12], 4.1 nM | 0.567 | –
E28 [12], 12.3 nM | 0.684 | –
E28 [12], 37 nM | 0.633 | –
E28 [12], 111.1 nM | 1.15 | –
E28 [12], 333.3 nM | 0.864 | –
E28 [12], 1000 nM | 1.16 | –
E28 [12], 3000 nM | 2.16 | –
E31 [6], 4.1 nM | – | 0.963
E31 [6], 12.3 nM | – | 0.947
E31 [6], 37 nM | – | 1.02
E31 [6], 111.1 nM | – | 0.92
E31 [6], 333.3 nM | – | 0.743
E31 [6], 1000 nM | – | 0.773
E31 [6], 3000 nM | – | 0.435
E31 [13], 4.1 nM | 0.452 | –
E31 [13], 12.3 nM | 0.55 | –
E31 [13], 37 nM | 1.12 | –
E31 [13], 111.1 nM | 0.652 | –
E31 [13], 333.3 nM | 0.826 | –
E31 [13], 1000 nM | 1.22 | –
E31 [13], 3000 nM | 2.48 | –
E34 [7], 4.1 nM | – | 0.904
E34 [7], 12.3 nM | – | 0.975
E34 [7], 37 nM | – | 0.973
E34 [7], 111.1 nM | – | 0.878
E34 [7], 333.3 nM | – | 1.13
E34 [7], 1000 nM | – | 0.996
E34 [7], 3000 nM | – | 0.702
E34 [14], 4.1 nM | 0.472 | –
E34 [14], 12.3 nM | 0.514 | –
E34 [14], 37 nM | 0.843 | –
E34 [14], 111.1 nM | 0.747 | –
E34 [14], 333.3 nM | 1.66 | –
E34 [14], 1000 nM | 0.95 | –
E34 [14], 3000 nM | 1.31 | –
E57 [1], 4.1 nM | – | 0.979
E57 [1], 12.3 nM | – | 0.953
E57 [1], 37 nM | – | 0.84
E57 [1], 111.1 nM | – | 0.864
E57 [1], 333.3 nM | – | 0.875
E57 [1], 1000 nM | – | 0.79
E57 [1], 3000 nM | – | 0.547
E57 [8], 4.1 nM | 0.541 | –
E57 [8], 12.3 nM | 0.746 | –
E57 [8], 37 nM | 0.59 | –
E57 [8], 111.1 nM | 1.02 | –
E57 [8], 333.3 nM | 1.3 | –
E57 [8], 1000 nM | 1.38 | –
E57 [8], 3000 nM | 3.02 | –
FT3469 [3], 4.1 nM | – | 0.963
FT3469 [3], 12.3 nM | – | 0.989
FT3469 [3], 37 nM | – | 1.02
FT3469 [3], 111.1 nM | – | 1.03
FT3469 [3], 333.3 nM | – | 0.843
FT3469 [3], 1000 nM | – | 1.07
FT3469 [3], 3000 nM | – | 0.638
FT3469 [10], 4.1 nM | 0.624 | –
FT3469 [10], 12.3 nM | 0.753 | –
FT3469 [10], 37 nM | 0.623 | –
FT3469 [10], 111.1 nM | 0.801 | –
FT3469 [10], 333.3 nM | 0.702 | –
FT3469 [10], 1000 nM | 1.37 | –
FT3469 [10], 3000 nM | 1.12 | –

CN(C(=O)CN(CCO)CC(=O)N(C)C(C)(C)Cc1ccccc1)C(C)(C)Cc1ccccc1 [Oxethazaine]
Conditions | phenotypic distance | surviving fraction
E13 [4], 4.1 nM | – | 1.09
E13 [4], 12.3 nM | – | 0.968
E13 [4], 37 nM | – | 0.928
E13 [4], 111.1 nM | – | 1.04
E13 [4], 333.3 nM | – | 1.07
E13 [4], 1000 nM | – | 0.99
E13 [4], 3000 nM | – | 0.951
E13 [11], 4.1 nM | 0.675 | –
E13 [11], 12.3 nM | 0.799 | –
E13 [11], 37 nM | 3.23 | –
E13 [11], 111.1 nM | 0.762 | –
E13 [11], 333.3 nM | 0.641 | –
E13 [11], 1000 nM | 3.59 | –
E13 [11], 3000 nM | 0.501 | –
E21 [2], 4.1 nM | – | 0.958
E21 [2], 12.3 nM | – | 1
E21 [2], 37 nM | – | 1.03
E21 [2], 111.1 nM | – | 0.955
E21 [2], 333.3 nM | – | 1.12
E21 [2], 1000 nM | – | 0.969
E21 [2], 3000 nM | – | 1.08
E21 [9], 4.1 nM | 1.27 | –
E21 [9], 12.3 nM | 0.301 | –
E21 [9], 37 nM | 0.673 | –
E21 [9], 111.1 nM | 0.767 | –
E21 [9], 333.3 nM | 0.702 | –
E21 [9], 1000 nM | 0.599 | –
E21 [9], 3000 nM | 0.942 | –
E28 [5], 4.1 nM | – | 1.08
E28 [5], 12.3 nM | – | 0.989
E28 [5], 37 nM | – | 1.05
E28 [5], 111.1 nM | – | 0.943
E28 [5], 333.3 nM | – | 1.15
E28 [5], 1000 nM | – | 1
E28 [5], 3000 nM | – | 1.16
E28 [12], 4.1 nM | 0.766 | –
E28 [12], 12.3 nM | 0.639 | –
E28 [12], 37 nM | 0.581 | –
E28 [12], 111.1 nM | 0.521 | –
E28 [12], 333.3 nM | 0.535 | –
E28 [12], 1000 nM | 0.928 | –
E28 [12], 3000 nM | 0.763 | –
E31 [6], 4.1 nM | – | 0.961
E31 [6], 12.3 nM | – | 0.975
E31 [6], 37 nM | – | 1.03
E31 [6], 111.1 nM | – | 0.93
E31 [6], 333.3 nM | – | 1.09
E31 [6], 1000 nM | – | 1.01
E31 [6], 3000 nM | – | 1.01
E31 [13], 4.1 nM | 1.19 | –
E31 [13], 12.3 nM | 0.518 | –
E31 [13], 37 nM | 0.559 | –
E31 [13], 111.1 nM | 0.664 | –
E31 [13], 333.3 nM | 0.743 | –
E31 [13], 1000 nM | 0.675 | –
E31 [13], 3000 nM | 1.16 | –
E34 [7], 4.1 nM | – | 1.02
E34 [7], 12.3 nM | – | 0.88
E34 [7], 37 nM | – | 1.05
E34 [7], 111.1 nM | – | 0.971
E34 [7], 333.3 nM | – | 1.19
E34 [7], 1000 nM | – | 1.2
E34 [7], 3000 nM | – | 0.914
E34 [14], 4.1 nM | 0.701 | –
E34 [14], 12.3 nM | 0.608 | –
E34 [14], 37 nM | 0.585 | –
E34 [14], 111.1 nM | 0.716 | –
E34 [14], 333.3 nM | 0.77 | –
E34 [14], 1000 nM | 0.595 | –
E34 [14], 3000 nM | 0.878 | –
E57 [1], 4.1 nM | – | 1.01
E57 [1], 12.3 nM | – | 0.936
E57 [1], 37 nM | – | 0.966
E57 [1], 111.1 nM | – | 0.964
E57 [1], 333.3 nM | – | 0.991
E57 [1], 1000 nM | – | 0.948
E57 [1], 3000 nM | – | 1
E57 [8], 4.1 nM | 0.467 | –
E57 [8], 12.3 nM | 0.582 | –
E57 [8], 37 nM | 0.373 | –
E57 [8], 111.1 nM | 0.789 | –
E57 [8], 333.3 nM | 0.553 | –
E57 [8], 1000 nM | 0.494 | –
E57 [8], 3000 nM | 1.79 | –
FT3469 [3], 4.1 nM | – | 0.961
FT3469 [3], 12.3 nM | – | 0.979
FT3469 [3], 37 nM | – | 1.02
FT3469 [3], 111.1 nM | – | 1.05
FT3469 [3], 333.3 nM | – | 0.978
FT3469 [3], 1000 nM | – | 1.1
FT3469 [3], 3000 nM | – | 0.933
FT3469 [10], 4.1 nM | 1.79 | –
FT3469 [10], 12.3 nM | 0.53 | –
FT3469 [10], 37 nM | 0.88 | –
FT3469 [10], 111.1 nM | 0.534 | –
FT3469 [10], 333.3 nM | 0.669 | –
FT3469 [10], 1000 nM | 0.43 | –
FT3469 [10], 3000 nM | 1.12 | –

Source: the supplement of paper PMC13207355
